CC50, IC50 and AC50 data for seven compounds are collected here from ChEMBL document CHEMBL1201862, “PubChem BioAssay data set” (2004).

Structures are written as SMILES. Active and inactive are the calls of the source.

Experiment [1] is described as follows: THP-1 cell cytotoxicity, dose response, cytotoxicity control for non-replicating M. tuberculosis project (AID 489025). Format: functional.
The target in experiment [2] is Beta-lactamase (Salmonella choleraesuis (strain SC-B67), UniProt Q5J463).
Chain of Beta-lactamase (Salmonella choleraesuis (strain SC-B67), UniProt Q5J463) (Q5J463 whole entry): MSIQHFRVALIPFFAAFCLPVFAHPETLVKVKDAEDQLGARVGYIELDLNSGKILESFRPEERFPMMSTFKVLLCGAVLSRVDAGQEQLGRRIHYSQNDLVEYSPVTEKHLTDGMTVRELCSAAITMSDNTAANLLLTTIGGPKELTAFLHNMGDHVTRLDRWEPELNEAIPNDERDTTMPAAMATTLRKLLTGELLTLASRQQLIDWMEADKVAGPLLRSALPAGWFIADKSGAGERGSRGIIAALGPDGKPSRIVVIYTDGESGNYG
Experiment [3] addresses Beta-lactamase (Pseudomonas aeruginosa, UniProt Q79MP6).
Experiment [4] in a line: Cytotoxicity screening for potential Inhibitors of Bacterial Capsule Biogenesis (4). Format: functional.
A short description of experiment [5]: non-specific 3'UTR reporter inhibition in Clone20-Shn3RL – cell-based, Renilla luciferase, cherry-picked, counter-screen for Shn3 inhibitor project, dose response (AID 624133). The class given is functional.
In another experiment the test system is INS1. As to the kind of experiment: INS-1E survival protection against cytokine death – cell-based, luminescence, retest, dose response (AID 449756).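 Note: cell death triggered by IL-1 beta plus TNF-alpha plus IFN-gamma mixture; protective hits raise ATP signal compared with cytokine alone wells.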 The class given is functional. Particulars: Rattus norvegicus.
The nature of experiment [6]: loss of viability in HepG2 cells – cell-based, CellTiter-Glo, cherry-picked, cytotoxicity control for Shn3 inhibitor project, dose response (AID 624134). The class given is functional. A general note: In ATP-based viability assays light output follows the ATP content of the culture.
A further experiment relates to BHK-21. The experiment is described as follows: viability loss in BHK-21 cells – cell-based, plate reader, cherry-pick samples, cytotoxicity control, dose response (AID 687030). The class given is functional. As to conditions: Mesocricetus auratus.
For a further experiment, the system named is A549. The experiment is described as follows: viability loss in A549 cells – cell-based, plate reader, cherry-pick samples, cytotoxicity control, dose response (AID 687028). The class given is functional. As to conditions: Homo sapiens.
A short description of experiment [7]: reduction of Shn3 3'UTR-driven luciferase in osteoblasts – cell-based, Clone20 osteoblasts, firefly luciferase, cherry-picked, dose response (AID 624132).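 Note: firefly luciferase luminescence from reporter carrying the Shn3 3'UTR in osteoblasts.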 The class given is functional.
Experiment [8] deals with T1, Sentrin-specific protease 1 (Homo sapiens, UniProt Q9P0U3). As to the kind of experiment: SENP1 catalytic domain blockers, concentration series – biochemical, kinetic FRET, dose response (AID 651697). The class given is functional. As to conditions: read-out: IC50_Mean.
T1 sequence (Q9P0U3 whole entry, the tested form may be a part): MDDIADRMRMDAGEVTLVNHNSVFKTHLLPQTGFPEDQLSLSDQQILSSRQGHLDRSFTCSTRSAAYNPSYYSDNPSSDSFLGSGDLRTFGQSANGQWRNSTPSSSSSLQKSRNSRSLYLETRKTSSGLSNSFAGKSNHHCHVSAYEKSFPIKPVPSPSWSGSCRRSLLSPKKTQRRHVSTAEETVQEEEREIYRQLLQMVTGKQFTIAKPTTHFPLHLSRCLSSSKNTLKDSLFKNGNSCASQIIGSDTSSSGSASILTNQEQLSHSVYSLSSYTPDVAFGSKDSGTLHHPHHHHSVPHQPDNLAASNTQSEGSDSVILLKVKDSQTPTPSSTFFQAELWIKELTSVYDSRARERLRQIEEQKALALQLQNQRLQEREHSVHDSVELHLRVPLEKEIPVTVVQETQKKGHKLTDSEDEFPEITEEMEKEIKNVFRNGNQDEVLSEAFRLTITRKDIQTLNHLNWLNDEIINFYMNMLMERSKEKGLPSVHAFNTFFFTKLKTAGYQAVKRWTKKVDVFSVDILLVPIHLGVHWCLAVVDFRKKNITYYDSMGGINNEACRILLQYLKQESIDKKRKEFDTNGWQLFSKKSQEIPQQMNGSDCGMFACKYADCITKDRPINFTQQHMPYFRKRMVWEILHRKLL
A further experiment is described as follows: cells. The class given is functional.
The target in experiment [9] is T1, Sentrin-specific protease 1. The experiment is described as follows: Dose response confirmation of small molecule inhibitors of the catalytic domain of the SUMO protease, SENP1 in a FRET assay. Particulars: read-out: IC50_Mean. Format: functional.
In experiment [10] the target is T2, Methionyl-tRNA synthetase, putative (Trypanosoma brucei brucei, UniProt Q38C91). Format: functional, Trypanosoma brucei brucei strain 927/4 GUTat10.1.
T2 sequence (Q38C91 whole entry): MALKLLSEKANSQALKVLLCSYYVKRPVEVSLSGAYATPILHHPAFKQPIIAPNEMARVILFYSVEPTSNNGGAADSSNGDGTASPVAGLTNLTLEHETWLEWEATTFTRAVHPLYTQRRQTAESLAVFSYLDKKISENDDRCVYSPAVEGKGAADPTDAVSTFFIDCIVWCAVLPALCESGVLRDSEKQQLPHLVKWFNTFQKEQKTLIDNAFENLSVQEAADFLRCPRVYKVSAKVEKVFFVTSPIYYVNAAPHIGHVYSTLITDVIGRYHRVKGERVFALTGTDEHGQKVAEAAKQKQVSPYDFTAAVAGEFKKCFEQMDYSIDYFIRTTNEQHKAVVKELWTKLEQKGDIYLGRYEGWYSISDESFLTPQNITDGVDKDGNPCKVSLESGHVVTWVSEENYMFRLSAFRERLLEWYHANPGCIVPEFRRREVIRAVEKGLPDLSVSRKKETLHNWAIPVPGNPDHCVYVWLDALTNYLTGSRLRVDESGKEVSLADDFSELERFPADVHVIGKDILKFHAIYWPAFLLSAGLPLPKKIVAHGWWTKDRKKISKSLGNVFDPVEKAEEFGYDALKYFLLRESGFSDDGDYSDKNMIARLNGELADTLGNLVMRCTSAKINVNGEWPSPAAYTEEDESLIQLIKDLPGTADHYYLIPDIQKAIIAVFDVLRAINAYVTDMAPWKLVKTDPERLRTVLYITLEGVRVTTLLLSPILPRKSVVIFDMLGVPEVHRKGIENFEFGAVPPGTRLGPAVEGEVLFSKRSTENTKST
Experiment [11] has as its target T2, Methionyl-tRNA synthetase, putative. The class given is functional, Trypanosoma brucei brucei strain 927/4 GUTat10.1. This is another data set of the same source.
A short description of experiment [12]: Counterscreen for inhibitors of Trypanosoma brucei methionyl tRNA synthetase (MetRS): Luminescence-based cell-based high throughput dose response assay to identify compounds that are cytotoxic to Jurkat human T lymphocyte cells. Format: functional. In general terms: The purpose of a counterscreen is to sort out artefacts and off-target activity.
Experiment [13] concerns the target T3, Low molecular weight phosphotyrosine protein phosphatase (Homo sapiens, UniProt P24666).
T3 sequence (P24666 whole entry): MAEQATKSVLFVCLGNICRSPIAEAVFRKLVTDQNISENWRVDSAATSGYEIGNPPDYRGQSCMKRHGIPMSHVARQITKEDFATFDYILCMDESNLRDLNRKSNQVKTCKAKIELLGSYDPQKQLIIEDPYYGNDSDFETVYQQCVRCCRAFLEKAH
The class given is functional. As to conditions: read-out: IC50_Mean.

The target of experiment [14] is T3, Low molecular weight phosphotyrosine protein phosphatase. Format: functional. As to conditions: read-out: IC50_Mean. The source holds these as a separate data set.
The target in the next experiment is Protein S100-A4 (Homo sapiens, UniProt P26447). As to the kind of experiment: human S100A4 peptide interaction inhibition curves – biochemical, fluorescence polarization, cherry-picked hits, dose response (AID 687001). The class given is functional. On the technique in general: In fluorescence polarisation assays a small probe gives low polarisation when free and higher when bound to something large.
Chain of Protein S100-A4 (P26447 whole entry): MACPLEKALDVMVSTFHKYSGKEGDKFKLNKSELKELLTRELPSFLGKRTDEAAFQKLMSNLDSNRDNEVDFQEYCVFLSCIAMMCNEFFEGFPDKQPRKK

A further experiment deals with Paired box protein Pax-8 (Homo sapiens, UniProt Q06710). As to the kind of experiment: PAX8 transcriptional activity inhibition in RMG-I – RMG-I cells, luciferase, cherry-pick, dose response (AID 687027).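 Note: luciferase reporter driven by Pax8 target thyroperoxidase promoter measured by SteadyGlo luminescence.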 The class given is functional, cell-based.
Chain of Paired box protein Pax-8 (Q06710 whole entry): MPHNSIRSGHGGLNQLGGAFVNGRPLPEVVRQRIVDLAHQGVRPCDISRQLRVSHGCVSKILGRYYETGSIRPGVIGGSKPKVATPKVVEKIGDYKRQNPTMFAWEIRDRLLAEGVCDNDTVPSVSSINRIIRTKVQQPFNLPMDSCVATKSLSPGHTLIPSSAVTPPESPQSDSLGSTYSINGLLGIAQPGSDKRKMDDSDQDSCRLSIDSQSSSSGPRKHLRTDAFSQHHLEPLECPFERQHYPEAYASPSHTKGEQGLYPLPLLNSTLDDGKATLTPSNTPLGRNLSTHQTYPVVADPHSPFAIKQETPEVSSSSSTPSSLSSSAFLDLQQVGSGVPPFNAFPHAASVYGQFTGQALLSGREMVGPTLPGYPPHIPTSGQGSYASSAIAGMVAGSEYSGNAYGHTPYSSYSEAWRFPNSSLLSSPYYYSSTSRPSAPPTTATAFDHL
Another experiment has as its target T4, Cytochrome P450 1A2 (Homo sapiens, UniProt P05177).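 Note: PubChem cytochrome P450 panel assay, CYP1A2 panel member.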
T4 sequence (P05177 whole entry): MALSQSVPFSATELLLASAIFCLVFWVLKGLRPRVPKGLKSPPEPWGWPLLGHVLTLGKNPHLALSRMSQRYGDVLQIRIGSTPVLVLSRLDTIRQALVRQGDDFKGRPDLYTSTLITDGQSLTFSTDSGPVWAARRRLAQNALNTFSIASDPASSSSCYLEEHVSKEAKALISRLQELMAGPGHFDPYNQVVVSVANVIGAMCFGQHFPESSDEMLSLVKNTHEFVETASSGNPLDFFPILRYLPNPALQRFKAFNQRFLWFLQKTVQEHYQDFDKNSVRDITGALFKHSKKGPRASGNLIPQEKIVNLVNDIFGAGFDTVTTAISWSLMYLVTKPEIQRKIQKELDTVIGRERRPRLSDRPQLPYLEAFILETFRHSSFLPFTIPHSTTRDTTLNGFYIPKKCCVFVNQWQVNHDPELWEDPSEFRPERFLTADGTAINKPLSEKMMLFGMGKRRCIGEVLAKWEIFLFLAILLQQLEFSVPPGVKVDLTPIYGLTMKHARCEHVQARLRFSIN

Experiment [15] in a line: Luminescence-based cell-based high throughput dose response assay to identify activators of the DAF-12 from the parasite S. stercoralis (ssDAF-12). Format: functional.

Chain of Beta-lactamase (Pseudomonas aeruginosa, UniProt Q79MP6) (Q79MP6 whole entry): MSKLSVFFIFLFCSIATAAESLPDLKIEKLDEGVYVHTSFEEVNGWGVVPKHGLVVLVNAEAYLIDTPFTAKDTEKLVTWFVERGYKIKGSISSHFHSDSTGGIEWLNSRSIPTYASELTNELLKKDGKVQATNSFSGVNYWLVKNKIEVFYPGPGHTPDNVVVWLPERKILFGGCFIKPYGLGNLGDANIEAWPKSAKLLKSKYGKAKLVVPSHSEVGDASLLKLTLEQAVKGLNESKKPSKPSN

For orientation: CC50 means the concentration at which the toxic effect on the cells reaches its halfway point. For the compound `N=C1/C(=C\c2coc3ccccc3c2=O)C(=O)N=C2SC=CN12`, the CC50 in experiment [1] was > 40 µM (active). Moreover, the results for the IC50 at Beta-lactamase [2] and at Beta-lactamase [3] were > 59.6 µM (inactive) and 36.4 µM (inactive), respectively.
`CC(C)(C)OC(=O)Nc1nc2ccc(C(=O)Nc3ccnc(Br)c3)cc2s1`: the CC50 in [4] was > 300 µM (inactive).
One may read the AC50 as the concentration giving half of the maximal activity seen. Consider `CC(=O)NC(c1cc(Cl)c2cccnc2c1O)C(C)C` (configuration not stated), for which the AC50 in experiment [5] is 2.71 µM (active); with INS1, 1.76 µM (active); in experiment [6], 5.13 µM (active); with BHK-21 it was 21.6 µM (active); with A549 it was 23.5 µM (active); in experiment [7], 2.96 µM (active).
On to `O=C(Nc1nccs1)c1cc2cc(Cl)ccc2oc1=O`, for which the IC50 in experiment [8] is 1.84 µM (active); in “cells”, 1.37 µM (active); in [9], 3.49 µM (active).
As to `Cc1cc(C)c(O)c(-c2cc(C(=O)NCCc3ccc(S(N)(=O)=O)cc3)[nH]n2)c1`, the IC50 in [10] is 39.5 µM (inactive); in [11], 70.9 µM (inactive); in experiment [12], 83.3 µM (inactive).
As for `COCCNc1nc(NCc2cnc(C)cn2)c2sccc2n1`, the IC50 in experiment [13] was 13.5 µM (active); in experiment [14], 20.4 µM (inactive).
Take `CC(=O)[C@@]1(O)Cc2c(O)c3c(c(O)c2[C@H](O[C@H]2C[C@H](N)[C@H](O)[C@H](C)O2)C1)C(=O)c1ccccc1C3=O`: the AC50 on Protein S100-A4 is 0.412 µM (active); at Paired box protein Pax-8 it was 3.77 µM (active); on Cytochrome P450 1A2, 20 µM (inconclusive). Besides, in experiment [15], the IC50 is > 67.5 µM (inactive).
